Data taken from patent publication US12410152B2, “Oxazole and thioazole-type cullin ring ubiquitin ligase compounds and uses thereof” (Proxygen GmbH, priority 2019, dated 2025).

Key:
[1] = test system: KBM7 WT and UBE2Mmut cells; test: Primary phenotypic screen, differential viability KBM7 WT vs UBE2M mutant; format: cell-based, human; details: 10 μM and 500 nM, 3 days
Experimental: (§1) Following this observation, it was rationalized that novel small molecule degraders can be identified in an unbiased manner, simply by searching for compounds that lose activity in the absence of UBE2M. 2000 small molecules, mostly of unknown function/target, were tested for their antiproliferative effects in human leukemia cells (KBM7). These cells were either transduced with a control sgRNA (KBM7WT), or with an sgRNA targeting UBE2M, leading to a hypomorph (deletion of six amino acids) with a functional impairment (UBE2Mmut).
KBM7^WT and UBE2M^mut cells were treated with a compound library (2000 cytotoxic diverse small-molecules, mostly of unknown function/target). Briefly, the screening was divided in three parts 1) primary screening, 2) follow up and 3) validation. During the primary screening, cells were treated with 10 μM and 500 nM of every compound. […] After 3 days of treatment, cell viability was measured (CellTiter Glo, Promega). The screen was perform in 384-well plates (Corning 3712) and the reagent/compound dispensing system used was: Echo 520 Liquid Handler, Multidrop™ Combi Reagent Dispenser. Control compounds were included in several wells, in all the plates. Method for validation of IC021313.2, IC020822.1, IC020772.1, T6938051 as described above in (i).

UBE2Mresc KBM7 cells = test: Cell viability assay, KBM7 UBE2M rescue (UBE2M cDNA re-introduced); format: cell-based, human; details: Table 1, data of FIG. 4; 3-day treatment; read-out: LC50 UBE2Mresc
Experimental: (§2) KBM7 cells with the specified genetic backgrounds were grown in IMDM supplemented with 10% FBS and 1% penicillin/streptomycin (pen/strep). AsPC1, HCT116, NCI-H446 and 293T cells were grown in DMEM 10% FBS and 1% pen/strep. MV4; 11, Jurkat and Be (2) C cells were grown in RPMI 10% FBS 1% pen/strep. KBM7, AsPC1 and HCT116 cells expressing Cas9 were generated using the plasmid Lenti_Cas9_Blasti (Addgene #52962). The lentiviral plasmid lentiGuide-Puro (Addgene #52963) was used to express sgRNAs against the genes UBE2M (in KBM7-Cas9, AsPC1-Cas9 and HCT116-Cas9 cells), UBE2G1 (in KBM7-Cas9 cells) and […] (in KBM7-Cas9 cells). The lentiviral plasmid lentiGuide-Puro-IRES-mCherry (modified from Addgene #52963) was used to express sgRNAs against CUL4A (in KBM7-Cas9 cells). The lentiviral plasmid pLenti-PGK-Hygro-DEST-UBE2M was generated by Gateway cloning (empty destination vector Addgene #19066), and used to generate UBE2M^resc KBM7 cells.
Indeed, >20 compounds were identified that fulfilled this criteria. […] The initial screening assay was conducted at two concentrations (10 μM and 500 nM). The dose ranging differential effect of these four hits was assessed/validated, comparing their activity in KBM7WT vs UBE2MMUT cells. […] A genetic rescue experiment, where UBE2M cDNA was re-introduced into the UBE2Mmut clone (UBE2Mresc), did (at least partically) reconstitute the initial sensitivity to the assessed compounds (FIG. 4, Table 1).
KBM7^WT, mutant KBM7 clones (UBE2M^mut, UBE2M^resc, UBE2G1^mut CUL4A^mut, CUL4B^mut), and 3-day doxycycline pretreated KBM7^iCas9_sgDDB1 cells were seeded at a cell density of 50,000 cells/mL in 96-well plates with DMSO or drug, in triplicates. Drugs used: IC020772.1/IC020772.1X, IC021313.2/IC021313.2X, T6938051/T6938051X or THZ531. Cells were treated for 3 days, after which cell viability was assessed according to manufacturer's protocol (CellTiter Glo, Promega G7570). Survival curves and EC50 values were calculated by best-fit analysis of the log 10 drug concentration to fold change of drug-treated cells over DMSO-treated cells. […]

UBE2M mutant KBM7 cells = test: cells; format: cell-based
Experimental: as §2, with “cells. […]” for “cells.”
as §1
Finally, a total of structurally similar analogs was tested to unravel structure-activity relationship of the identified molecules. To that end, their anti-cancer activity was assayed in WT cells, as well as KBM7 cells deficient in genes identified in the genome-wide CRISPR screens (UBE2M, CUL4B, UBE2G1). Moreover, the compounds were also tested in AsPC1 pancreatic cancer cells (WT or UBE2Mmut), MV4; 11 and Jurkat leukemia cells, Be (2) C neuroblastoma cells, and NCI-H446 lung cancer cells (Table 3 at the end of this document)
KBM7^WT, mutant KBM7 clones (UBE2M^mut, UBE2M^resc, UBE2G1^mut CUL4A^mut, CUL4B^mut), and 3-day doxycycline pretreated KBM7^iCas9_sgDDB1 cells were seeded at a cell density of 50,000 cells/mL in 96-well plates with DMSO or drug, in triplicates. Drugs used: IC020772.1/IC020772.1X, IC021313.2/IC021313.2X, T6938051/T6938051X or THZ531. Cells were treated for 3 days, after which cell viability was assessed according to manufacturer's protocol (CellTiter Glo, Promega G7570). Survival curves and EC50 values were calculated by best-fit analysis of the log 10 drug concentration to fold change of drug-treated cells over DMSO-treated cells. All survival assays included technical triplicates per sample, per experiment.

Row | SMILES | hit in differential viability screen [1] | CC50 (UBE2Mresc KBM7 cells) | CC50 (UBE2M mutant KBM7 cells)
1 | Cc1ccc(C(=O)N2CSCC2C(=O)N=c2[nH]cc(C)s2)o1 (stereo not drawn) [Compound T6938051] | stood out in terms of fold-change significance | 1.15 µM | 7.04 µM
2 | O=C(CSc1nnc2c(n1)[nH]c1ccccc12)Nc1ccc(Cl)cn1 [IC020772.1] | stood out in terms of fold-change significance | 0.75 µM | 4.15 µM
3 | O=C(CSc1nc2ccccc2[nH]1)Nc1ccc(Cl)cn1 [IC021313.2] | stood out in terms of fold-change significance | 1.94 µM | 10.7 µM
